Measured values published in paper PMC11756168, “Drug-drug interaction between ensitrelvir and tacrolimus in a patient undergoing treatment for COVID-19: a case report” (Journal of Pharmaceutical Health Care and Sciences, 2025).
“Also recorded” adds a separate entry of the source.

Columns and labels:
[1] = Laboratory parameters (Scr, ALT) in the patient; type: in vivo, human
[2] = Pharmacokinetics of TAC (literature); type: in vivo; conditions: human, blood; assumed, 1 L/kg at body weight 42 kg; read-out: volume of distribution (Vd) of TAC
[3] = TAC blood level monitoring (Siemens Dimension EXL200, ACMIA method) in the patient; conditions: human
[4] = One-compartment simulation of TAC levels with various F values; set-up: species or system human; conditions: for half-life: human, blood, oral, read-out: Estimated TAC half-life (converted)
Source text: (§1) t1/2=0.693/ke Cmax=Ctrough+F*Dose/Vd
(§2) where C1 and C2 represent the TAC blood levels at times T1 and T2 in the same dosing interval (T2 > T1), respectively. Ctrough represents TAC blood levels immediately before administration and dose represents the TAC dose. The volume of distribution (Vd) was assumed to be 42 L (1 L/kg based on a body weight of 42 kg). If the Ctrough was unavailable, Ctrough was estimated using ke.
Next, we evaluated the duration of DDI using ensitrelvir. […] Consequently, when F was set to 0.125, the simulated TAC levels matched the measured levels at 7:00 on day 8 (Supplemental Table S1). The estimated F value of TAC (0.125) was similar to that reported in a previous report (0.25 ± 0.20), which indicates the limited effect of ensitrelvir on the intestinal absorption of TAC. […] These pharmacokinetic analyses indicate that the DDI effect of ensitrelvir gradually diminishes over 7–10 days after its discontinuation. […] Therefore, caution regarding DDI with ensitrelvir should be exercised for 7–10 days after discontinuation of ensitrelvir. Furthermore, in the case of irreversible CYP3A inhibition, the timing of CYP3A expression recovery varies among individuals. Therefore, TAC after ensitrelvir treatment should be restarted at a reduced dosage and its blood levels should be closely monitored.
^a The tacrolimus level was estimated using a one-compartment pharmacokinetics model for oral administration, without considering the absorption rate constant. For tacrolimus levels after day 8, only values predicted with F = 0.125 are shown.

[5] = cited from earlier work
[6] = One-compartment calculation of TAC elimination half-life from consecutive blood levels; type: in vivo; conditions: human, po, 1.5 mg, read-out: calculated t1/2 of TAC (converted)
Method: Assuming a one-compartment model, the elimination rate constant (ke), elimination half-life (t1/2), and maximum plasma concentration (Cmax) of TAC were calculated as follows: ke=lnC1/C2/T2-T1
as §1, §2

CYP3A and P-gp = conditions: cited from earlier work
SARS-CoV-2 = test: SARS-CoV2 PCR cycle threshold (Ct) in the patient; type: in vivo
Method: On the day of admission, the patient was started on a five-day course of remdesivir (200 mg IV once, followed by 100 mg IV every 24 h for 4 days). The patient was also administered corticosteroid (day -30 to -21, dexamethasone 6 mg PO, once daily after breakfast; day -20 to -17, prednisolone 30 mg PO, once daily after breakfast). On day -23, baricitinib (2 mg PO, once daily after breakfast for 6 days) was administered. On day -17, methylprednisolone (1,000 mg IV, once daily for 5 days) was administered, followed by dexamethasone (6 mg IV, once daily after breakfast). The cycle threshold (Ct) value from the SARS-CoV2 PCR after treatment ([…]) was 25.73, indicating persistent viral presence; therefore, a second five-day course of remdesivir was administered. On day -13, tocilizumab (360 mg IV, once daily) was administered. […] Consequently, a third course of remdesivir was initiated on day -2 (200 mg IV once, followed by 100 mg IV daily for 9 days). On day 0, the patient was started on ensitrelvir treatment (375 mg PO once, followed by 125 mg PO for 4 days) in combination with remdesivir. At the time of the start of ensitrelvir therapy (day 0), the patient was taking the following medications: TAC (1.5 mg PO, once daily after dinner), dexamethasone (6 mg IV, once daily), sulfamethoxazole/trimethoprim (400 mg/80 mg PO, once daily after breakfast), rosuvastatin (5 mg PO, once daily after breakfast), nicorandil (5 mg PO, 3 times daily after meals), aspirin (100 mg PO, once daily after breakfast), esomeprazole (20 mg PO, once daily after breakfast), rivastigmine patch (18 mg, once daily), and subcutaneous denosumab (60 mg, every six months). The patient had received a COVID-19 vaccine approximately one year ago. The patient had no supplements or over-the-counter drugs. Grapefruit was not offered during the hospital stay. Before the start of ensitrelvir therapy, a clinical pharmacist informed the attending physician regarding the potential DDI between ensitrelvir and TAC or rosuvastatin (BCRP substrate) and recommended avoiding the concomitant use. Consequently, TAC was discontinued from the day before the start of ensitrelvir (day -1), and TAC blood levels were frequently monitored using a Siemens Dimension EXL200 with Flex Cartridge Tacrolimus (ACMIA method, Siemens). Rosuvastatin treatment was discontinued on day 0. Given that ensitrelvir is metabolized by CYP3A [17], dexamethasone, which reportedly induces CYP3A [18], was replaced with methylprednisolone on day 1.

P-glycoprotein (P-gp) = system: P-glycoprotein (P-gp); set-up: method as in PMID 37043676, PMID 37171749; conditions: cited from earlier work
[7] = system: breast cancer resistance protein (BCRP); set-up: method as in PMID 37043676, PMID 37171749; conditions: cited from earlier work
P-gp = system: P-gp; set-up: method as in PMID 37043676; conditions: cited from earlier work
[8] = cited from earlier work; remark: listed apart in the source
CYP3A [9] = system: CYP3A
[10] = Pharmacokinetics of ensitrelvir (literature); type: in vivo, human; conditions: suggested from t1/2 51.4 h
[11] = system: Cytochrome P450 3A (CYP3A); conditions: cited from earlier work
CYP3A [12] = conditions: ensitrelvir co-administration; cited from earlier work
[13] = CT imaging of the lungs in the patient; type: in vivo, human; conditions: day 18, after ensitrelvir in combination with remdesivir

In the case of `C=CC[C@@H]1/C=C(\C)C[C@H](C)C[C@H](OC)[C@H]2O[C@@](O)(C(=O)C(=O)N3CCCC[C@H]3C(=O)O[C@H](/C(C)=C/[C@@H]3CC[C@@H](O)[C@H](OC)C3)[C@H](C)[C@@H](O)CC1=O)[C@H](C)C[C@@H]2OC` [TAC, Tacrolimus], the Scr levels ([1]; TAC maintained at 1.5 mg daily, normal range 0.75—1.0 mg/dL) is reported as “within normal range”, the Vd [2] is reported as 42 L and the concentration at 11 h ([3]; oral) is reported as 5.1 ng/mL. For the same compound, the concentration at 12 h ([3]; oral, 1 mg) was 6.5 ng/mL, the concentration at 20 h ([3]; oral, 1 mg) was 3.7 ng/mL and the concentration at 21.5 h ([3]; oral, 1.5 mg) was 3.6 ng/mL. The concentration at 35.5 h ([3]; oral, 1.5 mg) was 2.7 ng/mL, the concentration at 83.5 h ([3]; oral, 1.5 mg) was 1.7 ng/mL and the concentration at 155.5 h ([3]; oral, 1.5 mg) was 1.1 ng/mL. For the same compound, the concentration at 5 days ([3]; oral, 2 mg) was 6.6 ng/mL, the concentration at 36 h ([3]; po, 0.2 mg) was 1 ng/mL and the concentration at 12 h ([3]; po, 1 mg) was 3.9 ng/mL. For the same compound, the “estimated F value of TAC” value ([4]; after ensitrelvir administration, simulated levels matched measured level at 7:00 on day 8) was 0.125, the half-life ([4]; 1 mg, day 8 to 12, assuming bioavailability 0.125) was 39.9 h and the half-life ([4]; 1 mg, day 12 to 14, assuming bioavailability 0.125) was 23.4 h. For the same compound, the half-life ([4]; Day5, 7:00 to Day8, 7:00, hypothesized to continue from days 2-5 until day 8) was 115 h, the “volume of distribution (Vd) of TAC” value ([5]; assumed) was 1 L/kg and the “F value of TAC in a previous report” value [5] was 0.25 ± 0.20. The “reported t1/2 of TAC” value [5] was 32 h, the half-life ([6]; day 0 to 2, under ensitrelvir) was 71.9 h and the half-life ([6]; day 2 to 5, under ensitrelvir) was 115 h. It also gave a half-life ([6]; day -1 to 0, before ensitrelvir) of 33.7 h.
In the case of `Cn1cnc(Cn2c(=O)[nH]/c(=N\c3cc4cn(C)nc4cc3Cl)n(Cc3cc(F)c(F)cc3F)c2=O)n1` [ensitrelvir, Ensitrelvir], the “increase in TAC trough/blood levels with concurrent ensitrelvir” value (CYP3A and P-gp) is given as “approximately threefold; also recorded: approximate three-fold increase”, the “SARS-CoV-2 PCR Ct value” (SARS-CoV-2; day 0, start of ensitrelvir in combination with remdesivir) is given as 25.88 and the “SARS-CoV-2 PCR Ct value” (SARS-CoV-2; day 5, ensitrelvir in combination with remdesivir) is given as 30.03. For the same compound, the “SARS-CoV-2 PCR Ct value” (SARS-CoV-2; day 12, after ensitrelvir in combination with remdesivir) was 34.36, the “SARS-CoV-2 PCR Ct value” (SARS-CoV-2; day 19, after ensitrelvir in combination with remdesivir) was 34.89 and the Scr level ([1]; during ensitrelvir treatment) was “remained within normal ranges”. For the same compound, the “alanine aminotransferase (ALT) level” value ([1]; during ensitrelvir treatment) was “remained within normal ranges”, the “inhibition of P-gp” value (P-glycoprotein (P-gp)) was “strongly inhibits” and the “inhibition of BCRP” value [7] was “strongly inhibits”. For the same compound, the “effect on AUC of digoxin (P-gp substrate)” value (P-gp) was “increased the AUC of digoxin”, the half-life of ensitrelvir [8] was “approximately 50 h” and the “time over which the DDI effect diminished/resolved” value (CYP3A [9]; after discontinuation of ensitrelvir) was 7 to 10 days. For the same compound, the “increase in the AUC of TAC by inhibition of CYP3A in the liver” value (CYP3A [9]; inferred from t1/2 prolongation) was “threefold increase”, the “time required to clear ensitrelvir from the body” value [10] was 7 to 8 days and the “inhibition of CYP3A” value [11] was “strongly inhibits”. For the same compound, the “manner of CYP3A inhibition” value [11] was “time-dependent and irreversible manner”, the “increase of AUC of midazolam” value (CYP3A [12]) was 6.7 fold and the “increase of t1/2 of midazolam” value (CYP3A [12]) was 2.3 fold. For the same compound, the “CT imaging of lung fields” value [13] was “improved inflammation in both lung fields”.
In the case of `CCC(CC)COC(=O)[C@H](C)N[P@](=O)(OC[C@H]1O[C@@](C#N)(c2ccc3c(N)ncnn23)[C@H](O)[C@@H]1O)Oc1ccccc1` [remdesivir], the “SARS-CoV2 PCR Ct value” (SARS-CoV-2; after first five-day course of remdesivir, day 15 (so in the source)) is reported as 25.73 and the “SARS-CoV2 PCR Ct value” (SARS-CoV-2; day -7, after second five-day course of remdesivir) is reported as 26.18.
